# Laboratory results reported in patent publication US20060205826A1, “Method of using carotenoids in the prevention of cognitive decline and for other neuroprotection functions” (priority 2005, published 2006).
# System: NF-κB
# Test: NF-κB activity (TransAm Kit) in retina and hippocampus of diabetic mice
# Type: in vivo
# Conditions: 15 days post alloxan, lutein treatment before and after diabetes induction
# Protocol: Male albino mice were used throughout the study, housed in a environmentally regulated room on a dark-light cycle of 12 hours with free access to food and water. Principles of laboratory animal care (NIH publication no. 85-23, revised 1985) were followed, as well as specific Spanish regulations. Animals were made diabetic with a single subcutaneous injection of 200 mg alloxan/kg body weight (66 mg/ml) in 0.1 M citrate buffer, pH 4.5, at day 0 of the experiment. Control mice were injected with the same volume of vehicle also at day 0 of the experiment. Mice were identified as diabetic on the basis of blood glucose levels (higher than 16 mM at least 4 days after alloxan treatment). Animals were divided into subgroups as required by the experiment (control, control+lutein, diabetic, diabetic+lutein, diabetic+insulin, diabetic+insulin+lutein). […] Insulin treated animals were injected daily with 500 mU/g body weight since day 4 until the end of the experiment. Mice were killed by cervical dislocation on day 14, and hippocampus and retina were removed and homogenized in pre-chilled 0.2 M potassium phosphate buffer, pH 7.0. […] Glycated hemoglobin was determined in blood samples obtained by heart puncture immediately before killing the animals. NF-κB activity was determined with TransAm Kit (Active Motif) that combines an ELISA test with an specific assay for transcription factors. […]
structure (smiles),measurement,value
CC1=C[C@H](O)CC(C)(C)[C@H]1/C=C/C(C)=C/C=C/C(C)=C/C=C/C=C(C)/C=C/C=C(C)/C=C/C1=C(C)C[C@@H](O)CC1(C)C [Lutein],NF-κB expression in hippocampus,decreased
same,NF-κB expression in retina,decreased
